# From patent US20200107568A1, “METHOD FOR REDUCING LINGERING SWEET AFTERTASTE” (SUNTORY HOLDINGS LIMITED, priority 2017, published 2020)
# Molecular target: T1, taste receptor (Homo sapiens, UniProt Q7RTX0+Q8TE23)
# T1 construct: endogenous in cells; host or cells: taste cells in the mouths of human panelists (in vivo tasting test)
# T1 sequence (Q8TE23 20-839): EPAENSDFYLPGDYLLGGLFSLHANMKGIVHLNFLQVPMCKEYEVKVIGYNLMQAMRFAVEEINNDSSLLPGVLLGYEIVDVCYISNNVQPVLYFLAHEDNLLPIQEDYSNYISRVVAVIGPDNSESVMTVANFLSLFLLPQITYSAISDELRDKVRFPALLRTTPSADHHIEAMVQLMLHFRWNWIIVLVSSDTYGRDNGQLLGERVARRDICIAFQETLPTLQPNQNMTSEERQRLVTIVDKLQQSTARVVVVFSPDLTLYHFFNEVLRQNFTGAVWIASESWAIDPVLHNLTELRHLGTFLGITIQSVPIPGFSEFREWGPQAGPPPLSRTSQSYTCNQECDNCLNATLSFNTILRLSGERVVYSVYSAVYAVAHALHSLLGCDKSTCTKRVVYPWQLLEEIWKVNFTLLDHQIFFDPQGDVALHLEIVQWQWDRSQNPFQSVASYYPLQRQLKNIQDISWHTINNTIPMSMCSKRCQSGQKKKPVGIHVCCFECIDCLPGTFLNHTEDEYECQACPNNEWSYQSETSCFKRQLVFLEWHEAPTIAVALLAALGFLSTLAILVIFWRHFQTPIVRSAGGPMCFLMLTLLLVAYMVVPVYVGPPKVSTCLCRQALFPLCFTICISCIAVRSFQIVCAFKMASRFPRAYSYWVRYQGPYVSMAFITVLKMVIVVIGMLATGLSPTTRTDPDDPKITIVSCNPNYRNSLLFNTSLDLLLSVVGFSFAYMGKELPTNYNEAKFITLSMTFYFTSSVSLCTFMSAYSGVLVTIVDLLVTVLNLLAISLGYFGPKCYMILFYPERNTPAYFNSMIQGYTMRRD
# T1 sequence (Q7RTX0 21-852): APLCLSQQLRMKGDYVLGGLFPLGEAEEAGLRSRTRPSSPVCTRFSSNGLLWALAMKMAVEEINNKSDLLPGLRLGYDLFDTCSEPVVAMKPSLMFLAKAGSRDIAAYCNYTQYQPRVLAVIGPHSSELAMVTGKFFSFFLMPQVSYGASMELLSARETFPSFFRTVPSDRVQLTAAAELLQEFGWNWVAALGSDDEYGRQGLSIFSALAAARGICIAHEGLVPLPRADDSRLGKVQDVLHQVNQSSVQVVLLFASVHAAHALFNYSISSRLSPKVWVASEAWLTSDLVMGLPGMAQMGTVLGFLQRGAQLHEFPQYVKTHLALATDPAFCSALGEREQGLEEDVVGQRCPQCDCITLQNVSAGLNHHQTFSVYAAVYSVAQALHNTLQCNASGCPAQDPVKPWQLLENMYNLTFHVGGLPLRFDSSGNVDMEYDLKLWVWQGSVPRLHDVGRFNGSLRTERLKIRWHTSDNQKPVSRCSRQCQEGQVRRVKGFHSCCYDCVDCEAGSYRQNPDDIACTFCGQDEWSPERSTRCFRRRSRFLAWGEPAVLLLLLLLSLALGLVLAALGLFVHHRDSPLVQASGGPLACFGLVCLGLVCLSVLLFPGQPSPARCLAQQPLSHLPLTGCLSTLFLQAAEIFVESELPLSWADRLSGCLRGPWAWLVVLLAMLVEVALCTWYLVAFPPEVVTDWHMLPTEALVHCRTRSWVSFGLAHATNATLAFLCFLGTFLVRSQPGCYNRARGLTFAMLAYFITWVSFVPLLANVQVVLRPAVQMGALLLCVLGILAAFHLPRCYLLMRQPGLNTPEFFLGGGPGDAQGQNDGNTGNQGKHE
# Experiment: Evaluation of sweet lingering by sensory panel, VAS sweetness intensity rating
# Assay type: in vivo
# Details: with respect to rebaudioside D (reference solution α1, 593 ppm); blend 1:1; N=4; found/theoretical index minus 1
# Procedure: (1) A reference solution α (a beverage containing only a high-intensity sweetener as a sweetener), a reference solution β (a beverage containing another sweetener and having the same sweetness intensity as the reference solution α), and a sample solution γ (a beverage composed of a mixture of the reference solutions α and β at a predetermined ratio as a sample solution) are prepared in individual cups. (2) The mouth is rinsed thoroughly with water and emptied. This rinsing process is repeated four times. (3) A defined amount (10 ml) of the reference solution α, or β, or the sample solution γ is put in the mouth in one breath, and spit out after 5 sec. […]
# A sweet lingering was measured by the above-described method of with respect to each of 3 solutions of a reference solution α, a reference solution β, and a sample solution γ composed thereof, which were adjusted to the same sweetness intensity. The order of the measurements was determined randomly for each evaluator. Next, the theoretical value of the sweet lingering of a sample solution γ is determined from the blend ratio (A:B) of the reference solution α to the reference solution β. […]
# Each panel evaluated the respective sweet lingering of the reference solutions α1, and β1, and the sample solution γ1 by the above-described method. […]
row,Effect of reducing a sweet lingering [%],Molecule
1,7,O=C(CO)[C@@H](O)[C@H](O)[C@H](O)CO [fructose]
2,43,thaumatin
